{"source": "patent EP3572468B1", "about": "“CYANINE DYES AND THEIR USAGE FOR IN VIVO STAINING OF MICROORGANISMS” (PHILIPPS-UNIVERSITÄT MARBURG, priority 2018, dated 2019)", "key": {"[1]": {"experiment": "Excitation and emission spectra", "type": "physicochemical", "details": "aqueous solution; 10 µM in 10 mM Tris pH 7.6 and 50 mM KCI", "protocol": "(§1) Fluorescence measurements and tritations were performed on a Jasco FP-6500 spectrofluorometer equipped with a Thermo Haake WKL 26 water recirculator at 20°C. Unless otherwise noted, a 1400 µL fluorescence cuvette of HellmaAnalytics (104F-QS) was used and the measurements were performed with the following settings: increment: 1.0 nm; integration time: 0.2 s; speed: 500 nm/min; sensitivity: medium; excitation slit width: 3 nm; emission slit width: 3 nm; excitation wavelength 610 nm. The emission spectra were recorded from 625 to 750 nm at 20°C. From all spectra, the corresponding background signal was substracted. The used hairpin double-stranded DNAs dsDNAhAT and dsDNAhGC had the sequences depicted in Table. 1. Table 1: Binding sites and sequences of DNA hairpins, which were used for fluorescence titrations experiments.\nFor each cyanine dye derivative: 6-AzTO-3, 6-TramTO-3 and 6-NH2TO-3, the excitation and emission spectra of a 10 µM solution of the corresponding compound in 1 mL of 10 mM Tris pH 7.6 and 50 mM KCI were measured. The excitation spectra were recorded at an emission of 670 nm in a rage from 500 - 660 nm (slit 5/10 nm), while the emission spectra were measured at an excitation of 590 nm in a range from 600 - 750 nm (slit 5/10 nm). (cf. Fig. 13)"}, "dsDNACT": {"test_system": "dsDNACT", "experiment": "Thermal melting analysis of dsDNACT", "type": "binding, calf", "protocol": "Thermal melting analysis was performed on a Jasco J-810 spectropolarimeter equipped with a Jasco CDF-426S peliter controller and a Thermo Haake WKL 26 water recirculator. It was measured at a concentration of 45 µM of dsDNACT with and without 1.8 µM of 6-TramTO-3 in 10 mM Tris pH 7.5. The measurement was performed at 260 nm, with a response of 2 s, a band width of 10 nm, from 40-95°C, a slope of 2°C/min. Three independent measurements were recorded and the intensity normalized."}, "[2]": {"test_system": "Escherichia coli (E. coli) NEB5α", "experiment": "Bacteria culture and staining: growth and FACS labeling of E. coli", "type": "cell-based", "protocol": "Escherichia coli (E. coli) NEB5α (New England Biolabs) and antibiotic-resistant and -sensitive Klebsiella pneumoniae (K. pneumoniae) were cultured in Luria-Bertani (LB) solid medium (LB-Agar) overnight at 37°C. The source of the K. pneumoniae strands is of no relevance to the invention. The invention may be applied to all types of microorganisms (bacteria, viri, fungi etc.) or other cells, either contained within a sample or isolated from a sample. For staining, growth curve analysis and replating experiments bacteria were suspended in LB liquid medium at an OD600 nm of 1.0 and 800 µL were transferred into a culture tube containing 7.2 mL of LB liquid medium supplemented with DMSO or candidate dyes (2.5 µM) final concentration). Density of bacterial cultures was measured using an Ultrospec 10 Cell Density Meter with 600 nm LED source (Amersham Biosciences). For bacterial re-plating experiments bacteria were sampled at OD600 nm = 2.0 and 5 µL of indicated dilutions in LB-medium were spotted onto LB-agar plates (Fig. 5) or 100 µL were plated onto LB-agar plates followed by incubation at 37°C until colonies became visible.\nBacteria and macrophages were washed with PBS prior to flow cytometry and analysed using a Guava easyCyte flow cytometer (Millipore). FCS3.0 files were analysed using Flowing Software (http://flowingsoftware.btk.fi/). Cells were first gated in the forward- / side-scatter plot to exclude debries, followed by quadrant gating in plots using the fluorescence channels as shown above. For discrimination of live/dead cell discrimination cells in PBS were supplemented with 0.4 µL/mL propidium-iodide (5 mg/ml solution) followed by 5 min incubation on ice. Propidium iodide signal was recorded in the yellow channel."}, "[3]": {"target": "dsDNAhGC (double-stranded DNA hairpin with the consensus sequence GGCCC)", "experiment": "Fluorescence titration with hairpin dsDNAhGC, binding affinity by DynaFit", "details": "1 µM dye in 10 mM Tris pH 7.6 and 50 mM KCI, 20°C, emission at 650 nm, 1:1 binding model, read-out: binding affinity (KD, apparent dissociation constant)", "protocol": "as §1, with “The used hairpin double-stranded DNAs dsDNAhAT and dsDNAhGC had the sequences depicted in Table. 1.” left out\n(§2) All fluorescence titrations followed the same procedure: to 1 mL of 1 µM solution of corresponding cyanine dye derivative in 10 mM Tris pH 7.6 and 50 mM KCI aliquots of a stock solution of the corresponding annealed DNA (dsDNAhAT and dsDNAhGC = 435 µM; dsDNACT = 0.65 mM) were successively added and the fluorescence spectra were recorded in a range from 625-750 nm after 1 min of each addition. […] The fluorescence emission plotted is the resulting mean of the three independent measurements. […]\n(§3) All binding affinities were determined by fitting the obtained experimental data in the DynaFit 4.0 software. […]"}, "[4]": {"test_system": "double-stranded calf thymus DNA (dsDNACT)", "experiment": "Fluorescence titration with dsDNACT, binding affinity by DynaFit", "details": "1 µM dye in 10 mM Tris pH 7.6 and 50 mM KCI, 20°C, emission at 647 nm, 1:1 binding model, read-out: binding affinity (KD, apparent dissociation constant)", "protocol": "as §1, with “The used hairpin double-stranded DNAs dsDNAhAT and dsDNAhGC had the sequences depicted in Table. 1.” left out\nas §2, §3"}}, "note": "“Also recorded” adds a separate entry of the source.", "data": [{"smiles": "CC[n+]1ccc(/C=C/C=C2\\Sc3ccccc3N2CCCCCCn2cc(CN)nn2)c2ccccc21.[I-]", "note": "[6-TramTO-3, 4-((1E,3Z)-3-(3-(6-(4-(aminomethyl)-1H-1,2,3-triazol-1-yl)hexyl)benzo[d]thiazol-2(3H)-ylidene)prop-1-en-1-yl)-1-ethylquinolin-1-ium iodide]", "values": [{"measurement": "long wavelength maximum of emission", "setting": "[1]", "result": 645, "unit": "nm"}, {"measurement": "long wavelength maximum of excitation", "setting": "[1]", "result": 633, "unit": "nm"}, {"measurement": "melting point of dsDNACT with addition of dye", "setting": "dsDNACT; 45 µM dsDNACT with 1.8 µM dye in 10 mM Tris pH 7.5, dsDNACT alone 68.12°C", "result": 72.66, "unit": "°C"}, {"measurement": "ΔTm", "setting": "dsDNACT; dsDNACT stabilization upon dye binding, 45 µM dsDNACT, 1.8 µM dye, 10 mM Tris pH 7.5", "result": 5, "unit": "°C"}, {"measurement": "bacterial growth in presence of dye", "setting": "[2]; 2.5 µM dye in LB medium, OD600 over time, liquid and solid medium", "result": "fully compatible with normal bacterial growth; also recorded: grew normally"}, {"measurement": "fluorescent labeling of live bacteria (FACS)", "setting": "[2]; 2.5 µM dye in culture medium, FACS at mid-exponential growth phase (OD600 = 2.0)", "result": "successfully fluorescently labeled"}, {"measurement": "Kd", "setting": "[3]", "result": "0.104 ± 0.054", "unit": "µM"}, {"measurement": "Kd", "setting": "[4]", "result": "19.5 ± 2.6", "unit": "µM"}]}]}
